SMILES strings stand for the structures. Read-outs that look alike come from different tables or passages of the source.

In assay [1] the test system is CDK4/6 protein. Put plainly: Western-blot determination of CDK4/6 protein degradation (DC50) in T-47D cells. Format: cell-based, human. The conditions noted are these: 24 h drug treatment, read-out: DC50(nM)/T-47D cell line.
The subject of assay [2] is CDK4/6 protein. Put plainly: Western-blot determination of CDK4/6 protein degradation (DC50) in Jurkat cells. Format: cell-based. To be noted: read-out: DC50(nM)/Jurkat cell line.
The next assay relates to MDA-MB-231 cells. Briefly: Half inhibitory concentration (IC50) on BET-expressing tumor cells, CCK-8, MDA-MB-231. The assay is classed as cell-based. To be noted: Homo sapiens, 48/72 h, read-out: IC50 (nM)/MDA-MB-231 cell line. As to the method: (§1) BET-expressing cells MV-4-11 cells (human B granulocytic leukemia cells), MDA-MB-231 cells (human breast cancer cells), MDA-MB-468 cells (human breast cancer cells), MDA-MB-453 Cells (human breast cancer cells), MM1S cells (myeloma (immunoglobulin A lambda), B lymphoblasts) and SR cells (human large cell immunoblast lymphoma) were purchased from the American Type Culture Collection (ATCC).
(§2) The cells used in this present disclosure were cultured in a 37° C. incubator containing 5% CO2. The complete cell culture medium was RPMI 1640/IMDM/DMEM medium with 10% fetal bovine serum, and the final concentrations of penicillin and streptomycin were 100 U/mL, respectively. All cells were tested negative for mycoplasma with mycoplasma detection kit before the experiment.
(§3) Determination of the Half Inhibitory Concentration (IC50) of PROTAD Compounds on Tumor Cells
(§4) MV-411 cells, MM1S cells and SR cells were seeded in 100 μL IMDM/RPMI1640/DMEM complete medium at a density of 15000/10000 cells/well; MDA-MB-231 cells, MDA-MB-468 cells, and MDA-MB453 cells were seeded in 100 μL IMDM/RPMI1640/DMEM complete medium at a density of 3000/5000 cells/well, respectively. 100 μL of the inoculated cells were treated with 0.5 μL diluted PROTAD compounds of the present disclosure to be tested at 10 successively decreasing concentrations (starting at the highest concentration of 10 μM; 5-fold serial dilutions). After the cells were treated with the tested drugs 48/72 h, the cell viability was determined according to the CCK-8 reagent manual. The negative control was DMSO, and the positive control was a commercial inhibitor. After CCK-8 treatment for 2 h, the value of O.D.450 was measured using a microplate reader.

The next assay deals with MDA-MB-468 cells. Put plainly: Half inhibitory concentration (IC50) on BET-expressing tumor cells, CCK-8, MDA-MB-468. The conditions noted are these: Homo sapiens, 48/72 h, read-out: IC50 (nM)/MDA-MB-468 cell line. The assay is classed as cell-based. The protocol: as §1, §2, §3, §4
A further assay relates to MDA-MB-453 cells. Put plainly: Half inhibitory concentration (IC50) on BET-expressing tumor cells, CCK-8, MDA-MB-453. Format: cell-based, human. The conditions noted are these: 48/72 h, read-out: IC50 (nM)/MDA-MB-453 cell line. As to the method:
as §1, §2, §3, §4

Another assay relates to MM1S cells. Put plainly: Half inhibitory concentration (IC50) on BET-expressing tumor cells, CCK-8, MM1S. To be noted: Homo sapiens, MM1.S, 48/72 h, read-out: IC50 (nM)/MM1S cell line. The assay is classed as cell-based. The method, boiled down: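 Cells treated for 48/72 h with ten 5-fold dilutions from 10 μM top, DMSO as negative control. Viability read by CCK-8 (2 h, OD450) and IC50 derived from the concentration series; suspension lines seeded at 15000/10000 cells/well, MDA-MB lines at 3000/5000 cells/well.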

Assay [3] has as its target T1, BRD2 (Homo sapiens, UniProt P25440). Briefly: Western-blot half-degradation concentration (DC50) / degradation of BRD2 in MV-4-11 cells. Format: cell-based. To be noted: 24 hours; for DC50: Western-blot, read-out: DC50 (nM)/MV-4-11 cell line BRD2 degradation. The text has this:
(§5) Western-Blot Determination of the Half-Degradation Concentration (DC50) of the PROTAD Compounds on the Target Proteins
(§6) The supernatant was aspirated as total cell protein extracted.

A further assay relates to MV-4-11 cells. Briefly: Half inhibitory concentration (IC50) on BET-expressing tumor cells, CCK-8, MV-4-11. To be noted: Homo sapiens, MV4-11, read-out: IC50 (nM)/MV-4-11 cell line, MV-4-11 cells, 48/72 h, CCK-8.
The target in assay [4] is T1, BRD2. Briefly: Western-blot detection of BRD2 protein degradation (FIGS. 16a-c). The assay is classed as cell-based.
Assay [5] deals with T2, BRD4 (Homo sapiens, UniProt O60885). Put plainly: Western-blot detection of BRD4 protein degradation (FIGS. 16a-c). The assay is classed as cell-based.
Assay [6] has as its target T2, BRD4. Put plainly: Western-blot degradation of BRD4 in MV-4-11 cells. The assay is classed as cell-based. The conditions noted are these: 24 hours.
Excerpt: as §5, §6

The test system of another assay is SR cells. Put plainly: Half inhibitory concentration (IC50) on BET-expressing tumor cells, CCK-8, SR. The assay is classed as cell-based. To be noted: Homo sapiens, 48/72 h, read-out: IC50 (nM)/SR cell line. As to the method:
as §1, §2, §3, §4

Where [7] appears, read: Homo sapiens, MDA-MB-453, MDA-MB-453 cells.

T1 sequence (P25440 whole entry): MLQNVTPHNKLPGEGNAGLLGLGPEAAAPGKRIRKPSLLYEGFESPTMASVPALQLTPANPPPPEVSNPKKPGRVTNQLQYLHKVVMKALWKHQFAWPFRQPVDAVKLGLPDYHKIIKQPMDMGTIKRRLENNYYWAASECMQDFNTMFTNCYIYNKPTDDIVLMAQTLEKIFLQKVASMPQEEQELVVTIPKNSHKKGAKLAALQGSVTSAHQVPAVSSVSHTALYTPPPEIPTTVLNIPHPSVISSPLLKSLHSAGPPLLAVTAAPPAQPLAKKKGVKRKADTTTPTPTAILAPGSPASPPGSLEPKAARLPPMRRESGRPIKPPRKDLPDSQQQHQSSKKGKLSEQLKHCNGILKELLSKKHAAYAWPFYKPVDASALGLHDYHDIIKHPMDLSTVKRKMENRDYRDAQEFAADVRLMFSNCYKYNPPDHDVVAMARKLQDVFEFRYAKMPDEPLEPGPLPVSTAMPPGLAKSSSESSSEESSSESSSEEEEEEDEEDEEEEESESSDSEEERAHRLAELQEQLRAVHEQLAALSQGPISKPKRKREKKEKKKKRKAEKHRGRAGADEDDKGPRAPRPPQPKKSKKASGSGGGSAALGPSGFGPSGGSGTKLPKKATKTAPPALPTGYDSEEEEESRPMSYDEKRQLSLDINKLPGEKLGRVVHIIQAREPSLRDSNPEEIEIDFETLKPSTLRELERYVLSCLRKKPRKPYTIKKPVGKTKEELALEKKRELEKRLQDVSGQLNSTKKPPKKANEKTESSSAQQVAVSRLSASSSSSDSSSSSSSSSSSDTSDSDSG

As to `CC(=O)c1c(C)c2cnc(Nc3ccc(N4CCN(C(=O)CSc5cccc6c5C(=O)N(C5CCC(=O)NC5=O)C6=O)CC4)cn3)nc2n(C2CCCC2)c1=O` (stereo not shown) [SIAIS151046, 4-((2-(4-(6-((6-acetyl-8-cyclopentyl-5-methyl-7-oxo-7,8-dihydropyrido[2,3-d]pyrimidin-2-yl)amino)pyridin-3-yl)piperazin-1-yl)-2-oxoethyl)thio)-2-(2,6-dioxopiperidin-3-yl)isoindoline-1,3-dione], the DC50 in the assay with CDK4/6 protein [1] and in the assay on CDK4/6 protein [2] was 1 to 10 nM each time.
Consider `Cc1sc2c(c1C)C(c1ccc(Cl)cc1)=N[C@@H](CC(=O)NCCCCSc1cccc3c1C(=O)N(C1CCC(=O)NC1=O)C3=O)c1nnc(C)n1-2` (stereo partly drawn) [SIAIS171037, 2-((S)-4-(4-chlorophenyl)-2,3,9-trimethyl-6H-thieno[3,2-f][1,2,4]triazolo[4,3-a][1,4]diazepin-6-yl)-N-(4-((2-(2,6-dioxopiperidin-3-yl)-1,3-dioxoisoindolin-4-yl)thio)butyl)acetamide], for which the IC50 with MDA-MB-231 cells was determined as 88 ± 38 nM; in the assay on MDA-MB-468 cells, 52.5 ± 24 nM; in the assay with MDA-MB-453 cells (setting [7]), 154 nM; in the assay on MDA-MB-453 cells (MDA-MB-453 cells), 226 nM; in the assay on MM1S cells, 5.36 nM; in the assay on MV-4-11 cells, 6.2 ± 4.1 nM. The DC50 on BRD2 [3] is < 0.4 nM.
In the case of `Cc1sc2c(c1C)C(c1ccc(Cl)cc1)=N[C@@H](CC(=O)NCCCCCNc1cccc3c1CN(C1CCC(=O)NC1=O)C3=O)c1nnc(C)n1-2` (stereo partly drawn) [SIAIS213110, 2-((S)-4-(4-chlorophenyl)-2,3,9-trimethyl-6H-thieno[3,2-f][1,2,4]triazolo[4,3-a][1,4]diazepin-6-yl)-N-(5-((2-(2,6-dioxopiperidin-3-yl)-1-oxoisoindolin-4-yl)amino)pentyl)acetamide], on BRD2 [4], the “ability to degrade BRD2 protein (Western-blot, in words)” value was “significantly weaker ability to degrade”. Also, the “ability to degrade BRD4 protein (Western-blot, in words)” value on BRD4 [5] is “significantly weaker ability to degrade”. Further, at BRD2 [3], the “degradation of BRD2 protein (Western-blot)” value is “significantly weaker ability to degrade BRD2 and BRD4 proteins”. On BRD4 [6], the “degradation of BRD4 protein (Western-blot)” value was “significantly weaker ability to degrade BRD2 and BRD4 proteins”.
`Cc1sc2c(c1C)C(c1ccc(Cl)cc1)=N[C@@H](CC(=O)NCCCCSc1cccc3c1CN(C1CCC(=O)NC1=O)C3=O)c1nnc(C)n1-2` (stereo partly drawn) [SIAIS171141, 2-((S)-4-(4-chlorophenyl)-2,3,9-trimethyl-6H-thieno[3,2-f][1,2,4]triazolo[4,3-a][1,4]diazepin-6-yl)-N-(4-((2-(2,6-dioxopiperidin-3-yl)-1-oxoisoindolin-4-yl)thio)butyl)acetamide]: the IC50 was 19.9 ± 9.2 nM in the assay on MDA-MB-231 cells; 10 ± 2 nM in the assay with MDA-MB-468 cells; 112 nM in the assay on MDA-MB-453 cells (setting [7]); 98 nM in the assay on MDA-MB-453 cells (MDA-MB-453 cells); 0.24 nM in the assay on MM1S cells; 3.91 nM in the assay on SR cells. Also, in the assay with MV-4-11 cells, the IC50 worked out at 0.25 ± 0.2 nM.
With `Cc1sc2c(c1C)C(c1ccc(Cl)cc1)=N[C@@H](CC(=O)NCCCCCCSc1cccc3c1CN(C1CCC(=O)NC1=O)C3=O)c1nnc(C)n1-2` (stereo partly drawn) [SIAIS171143, 2-((S)-4-(4-chlorophenyl)-2,3,9-trimethyl-6H-thieno[3,2-f][1,2,4]triazolo[4,3-a][1,4]diazepin-6-yl)-N-(6-((2-(2,6-dioxopiperidin-3-yl)-1-oxoisoindolin-4-yl)thio)hexyl)acetamide], the IC50 came out at 313 ± 309 nM in the assay on MDA-MB-231 cells; 376 ± 55 nM in the assay with MDA-MB-468 cells; 0.32 nM in the assay with MM1S cells; 1.48 nM in the assay on SR cells; 0.3 nM in the assay with MV-4-11 cells.
With `Cc1sc2c(c1C)C(c1ccc(Cl)cc1)=N[C@@H](CC(=O)NCCCCCSc1cccc3c1CN(C1CCC(=O)NC1=O)C3=O)c1nnc(C)n1-2` (stereo partly drawn) [SIAIS171142, 2-((S)-4-(4-chlorophenyl)-2,3,9-trimethyl-6H-thieno[3,2-f][1,2,4]triazolo[4,3-a][1,4]diazepin-6-yl)-N-(5-((2-(2,6-dioxopiperidin-3-yl)-1-oxoisoindolin-4-yl)thio)pentyl)acetamide], the IC50 in the assay on MDA-MB-231 cells stood at 17.7 ± 7.6 nM; in the assay on MDA-MB-468 cells, 6.1 ± 0.4 nM; in the assay with MDA-MB-453 cells (setting [7]) it was 37.4 nM; with MDA-MB-453 cells (MDA-MB-453 cells), 37.1 nM; with MM1S cells it was 0.31 nM; with SR cells, 2.42 nM. Besides, the IC50 in the assay on MV-4-11 cells came out at 0.08 ± 0.03 nM.
`CC(=O)c1c(C)c2cnc(Nc3ccc(N4CCN(C(=O)COCCSc5cccc6c5C(=O)N(C5CCC(=O)NC5=O)C6=O)CC4)cn3)nc2n(C2CCCC2)c1=O` (stereo not shown) [SIAIS184091, 4-((2-(2-(4-(6-((6-acetyl-8-cyclopentyl-5-methyl-7-oxo-7,8-dihydropyrido[2,3-d]pyrimidin-2-yl)amino)pyridin-3-yl)piperazin-1-yl)-2-oxoethoxy)ethyl)thio)-2-(2,6-dioxopiperidin-3-yl)isoindoline-1,3-dione]: the DC50 in the assay on CDK4/6 protein [1] and in the assay with CDK4/6 protein [2] was 1 to 10 nM in each case.
Take `CC(=O)c1c(C)c2cnc(Nc3ccc(N4CCN(C(=O)CCCCSc5cccc6c5CN(C5CCC(=O)NC5=O)C6=O)CC4)cn3)nc2n(C2CCCC2)c1=O` (stereo not shown) [SIAIS184092, 3-(4-((5-(4-(6-((6-acetyl-8-cyclopentyl-5-methyl-7-oxo-7,8-dihydropyrido[2,3-d]pyrimidin-2-yl)amino)pyridin-3-yl)piperazin-1-yl)-5-oxopentyl)thio)-1-oxoisoindolin-2-yl)piperidine-2,6-dione]: the DC50 was < 0.1 nM with CDK4/6 protein [1] and < 1 nM with CDK4/6 protein [2].
With `Cc1sc2c(c1C)C(c1ccc(Cl)cc1)=N[C@@H](CC(=O)NCCCCCOc1cccc3c1CN(C1CCC(=O)NC1=O)C3=O)c1nnc(C)n1-2` (stereo partly drawn) [SIAIS271066, 2-((S)-4-(4-chlorophenyl)-2,3,9-trimethyl-6H-thieno[3,2-f][1,2,4]triazolo[4,3-a][1,4]diazepin-6-yl)-N-(5-((2-(2,6-dioxopiperidin-3-yl)-1-oxoisoindolin-4-yl)oxy)pentyl)acetamide], the “ability to degrade BRD2 protein (Western-blot, in words)” value at BRD2 [4] is on record as “significantly weaker ability to degrade”. The “ability to degrade BRD4 protein (Western-blot, in words)” value on BRD4 [5] was “significantly weaker ability to degrade”. The “degradation of BRD2 protein (Western-blot)” value on BRD2 [3] is “significantly weaker ability to degrade BRD2 and BRD4 proteins”. The “degradation of BRD4 protein (Western-blot)” value at BRD4 [6] was “significantly weaker ability to degrade BRD2 and BRD4 proteins”.
For `CC(=O)c1c(C)c2cnc(Nc3ccc(N4CCN(C(=O)CCCCCCSc5cccc6c5C(=O)N(C5CCC(=O)NC5=O)C6=O)CC4)cn3)nc2n(C2CCCC2)c1=O` (stereo not shown) [SIAIS184090, 4-((7-(4-(6-((6-acetyl-8-cyclopentyl-5-methyl-7-oxo-7,8-dihydropyrido[2,3-d]pyrimidin-2-yl)amino)pyridin-3-yl)piperazin-1-yl)-7-oxoheptyl)thio)-2-(2,6-dioxopiperidin-3-yl)isoindoline-1,3-dione], the DC50 in the assay with CDK4/6 protein [1] and with CDK4/6 protein [2] was 1 to 10 nM each time.
Consider `Cc1sc2c(c1C)C(c1ccc(Cl)cc1)=N[C@@H](CC(=O)NCCCCCSc1cccc3c1C(=O)N(C1CCC(=O)NC1=O)C3=O)c1nnc(C)n1-2` (stereo partly drawn) [SIAIS171038, 2-((S)-4-(4-chlorophenyl)-2,3,9-trimethyl-6H-thieno[3,2-f][1,2,4]triazolo[4,3-a][1,4]diazepin-6-yl)-N-(5-((2-(2,6-dioxopiperidin-3-yl)-1,3-dioxoisoindolin-4-yl)thio)pentyl)acetamide], for which the IC50 in the assay on MDA-MB-231 cells turned out to be 182 ± 89 nM; with MDA-MB-468 cells it was 61 ± 8 nM; in the assay with MDA-MB-453 cells (setting [7]) it was 135 nM; in the assay with MDA-MB-453 cells (MDA-MB-453 cells) it was 230 nM; in the assay with MM1S cells it was 7.77 nM; in the assay on MV-4-11 cells, 6.2 ± 3 nM. In addition, the DC50 on BRD2 [3] was < 0.4 nM.
